Consider 34 compounds from patent publication US8889670B2, “Heterocyclic compounds which modulate the CB2 receptor” (Boehringer Ingelheim International GmbH, priority 2009, dated 2014).

In the first experiment the target is T1, human CB2R (Homo sapiens, UniProt P34972).
T1 construct: host or cells: CHO cells
T1 sequence (P34972 whole entry): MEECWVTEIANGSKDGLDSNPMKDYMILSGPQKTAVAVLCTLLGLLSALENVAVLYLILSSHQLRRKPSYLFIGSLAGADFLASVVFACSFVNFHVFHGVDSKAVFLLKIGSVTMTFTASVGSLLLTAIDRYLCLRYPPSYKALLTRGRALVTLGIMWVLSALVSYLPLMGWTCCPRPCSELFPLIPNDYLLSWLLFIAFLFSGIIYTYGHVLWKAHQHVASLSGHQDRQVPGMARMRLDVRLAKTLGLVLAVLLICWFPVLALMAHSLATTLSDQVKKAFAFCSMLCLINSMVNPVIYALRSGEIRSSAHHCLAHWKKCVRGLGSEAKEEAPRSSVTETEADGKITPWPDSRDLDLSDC
Kind of experiment: CB2R mediated modulation of cAMP synthesis (forskolin-stimulated cAMP, CHO cells expressing human CB2R). It is filed as cell-based.
Settings: not given
As for the experimental part:
B. CB2R Mediated Modulation of cAMP Synthesis:
Compounds of the invention were evaluated for their CB2 agonist or inverse agonistic activity in accordance with the following experimental method.
CHO cells expressing human CB2R (Euroscreen) were plated at a density of 5000 cells per well in 384 well plates and incubated overnight at 37° C. After removing the media, the cells were treated with test compounds diluted in stimulation buffer containing 1 mM IBMX, 0.25% BSA and 10 uM Forskolin. The assay was incubated for 30 minutes at 37° C. Cells were lysed and the cAMP concentration was measured using DiscoverX-XS cAMP kit, following the manufacturer's protocol. In this setting, agonists will decrease forskolin induced production of cAMP while inverse agonists will further increase forskolin induced production of cAMP. EC50 of agonists were calculated as follows. The maximal amount of cAMP produced by forskolin compared to the level of cAMP inhibited by 1 uM CP55940 is defined as 100%. […] Data was analyzed using a four-parameter logistic model. (Model 205 of XLfit 4.0).
The term EC50 denotes the concentration that produces a half-maximal response. Regarding `CC(C)(C)c1cc(NC(=O)[C@@H]2CCCCN2CC2CCOCC2)sn1` [(S)-1-(Tetrahydro-pyran-4-ylmethyl)-piperidine-2-carboxylic acid (3-tert-butyl-isothiazol-5-yl)-amide], the midpoint of the response, the EC50, lay at 0.3 nM. The compound `CC(C)(C)c1cc(NC(=O)[C@@H]2CCCCN2C(=O)C2CCCCCC2)no1` displayed an EC50 of 8.2 nM. The same measure, in the same setting: as for `CC(C)(C)c1cc(NC(=O)[C@@H]2CCCCN2C(=O)c2cccc(Cl)c2)no1` [(S)-1-(3-Chloro-benzoyl)-piperidine-2-carboxylic acid (5-tert-butyl-isoxazol-3-yl)-amide], the figure is 44 nM. Turning to `CC(C)(C)c1cc(NC(=O)C2CCCN(Cc3ccc(Cl)cc3)C2)no1` (stereo not shown) [1-(4-Chloro-benzyl)-piperidine-3-carboxylic acid (5-tert-butyl-isoxazol-3-yl)-amide], it took 2.7 nM to reach a half-maximal effect (EC50). On the same count and under the same terms, as for `CC(C)(C)c1cc(NC(=O)[C@@H]2CCCCN2C(=O)CC2CCS(=O)(=O)C2)no1` (stereo partly drawn) [(S)-1-[2-(1,1-Dioxo-tetrahydro-1λ^6-thiophen-3-yl)-acetyl]-piperidine-2-carboxylic acid (5-tert-butyl-isoxazol-3-yl)-amide], the figure is 7.7 nM; as for `O=C(Nc1nc(-c2ccc(Cl)cc2)cs1)[C@@H]1CCCCN1C(=O)N1CCS(=O)(=O)CC1` [(S)-1-(1,1-Dioxo-1λ^6-thiomorpholine-4-carbonyl)-piperidine-2-carboxylic acid [4-(4-chloro-phenyl)-thiazol-2-yl]-amide], 9.9 nM; as for `CC(C)(C)c1cc(NC(=O)[C@@H]2CCCCN2S(=O)(=O)c2ccc(Cl)cc2)no1` [(S)-1-(4-Chloro-benzenesulfonyl)-piperidine-2-carboxylic acid (5-tert-butyl-isoxazol-3-yl)-amide], 21 nM. Compound `CC(C)(C)c1cc(NC(=O)C2COCCN2S(=O)(=O)c2ccc(Cl)cc2)no1` (stereo not shown) [4-(4-Chloro-benzenesulfonyl)-morpholine-3-carboxylic acid (5-tert-butyl-isoxazol-3-yl)-amide] registered an EC50 of 34 nM. The compound `CC(C)(C)c1cc(NC(=O)[C@@H]2CCCCN2C(=O)C2CCS(=O)(=O)C2)no1` (stereo partly drawn) [(S)-1-(1,1-Dioxo-tetrahydro-1λ^6-thiophene-3-carbonyl)-piperidine-2-carboxylic acid (5-tert-butyl-isoxazol-3-yl)-amide] returned an EC50 of 17 nM.

For `O=C(Nc1ccc(F)c(C(F)(F)F)c1)[C@@H]1CCCCN1CC1CCOCC1` [(S)-1-(Tetrahydro-pyran-4-ylmethyl)-piperidine-2-carboxylic acid (4-fluoro-3-trifluoromethyl-phenyl)-amide], the EC50 stood at 26 nM.

For `CC(C)(C)c1cc(NC(=O)[C@@H]2CCCCN2Cc2ccc(F)c(F)c2)no1` [(S)-1-(3,4-Difluoro-benzyl)-piperidine-2-carboxylic acid (5-tert-butyl-isoxazol-3-yl)-amide], the EC50 amounted to 0.58 nM. On the same count and under the same terms, as for `CO[C@H]1CC[C@@H](C(=O)N2CCCC[C@H]2C(=O)Nc2cc(C(C)(C)C)on2)CC1`, the figure is 43 nM. For `O=C(Nc1nc(-c2ccc(F)cc2F)cs1)[C@@H]1CCCCN1C(=O)N1CCS(=O)(=O)CC1` [(S)-1-(1,1-Dioxo-1λ^6-thiomorpholine-4-carbonyl)-piperidine-2-carboxylic acid [4-(2,4-difluoro-phenyl)-thiazol-2-yl]-amide], the EC50 amounted to 22 nM. Turning to `O=C(Nc1nc2c(F)cccc2s1)[C@@H]1CCCCN1CC1CCOCC1` [(S)-1-(Tetrahydro-pyran-4-ylmethyl)-piperidine-2-carboxylic acid (4-fluoro-benzothiazol-2-yl)-amide], the EC50 was 1.3 nM. The same measure, in the same setting: under `O=C(Nc1nc(-c2ccc(F)c(F)c2)cs1)[C@@H]1CCCCN1CC1CCOCC1` [(S)-1-(Tetrahydro-pyran-4-ylmethyl)-piperidine-2-carboxylic acid [4-(3,4-difluoro-phenyl)-thiazol-2-yl]-amide] stands 3.6 nM.

The experiment is the same for the next values; noted with them: agonist EC50, inhibition of forskolin-stimulated cAMP synthesis; CHO cells expressing human CB2R; mean; read-out: CB2 CAMP @ EC50 nM (mean).
On to `CCn1nc(NC(=O)[C@@H]2CCCCN2C(=O)N2CCS(=O)(=O)CC2)nc1-c1ccccc1` [(S)-1-(1,1-Dioxo-1λ^6-thiomorpholine-4-carbonyl)-piperidine-2-carboxylic acid (1-ethyl-5-phenyl-1H-1,2,4-triazol-3-yl)-amide], for which the EC50 stood at 135 nM.

With `CC(C)(C)c1cc(NC(=O)C2CCCN(C(=O)C3CCOCC3)C2)no1` (stereo not shown) [1-(Tetrahydro-pyran-4-carbonyl)-piperidine-3-carboxylic acid (5-tert-butyl-isoxazol-3-yl)-amide], the EC50 is 205 nM. The same measure, in the same setting: under `O=C(Nc1nsc(-c2ccccc2)n1)[C@@H]1CCCCN1CC1CCOCC1` [(S)-1-(Tetrahydro-pyran-4-ylmethyl)-piperidine-2-carboxylic acid (5-phenyl-1,2,4-thiadiazol-3-yl)-amide] stands 14 nM; under `CC(C)(C)c1cc(NC(=O)C2CCCN(C(=O)N3CCS(=O)(=O)CC3)C2)no1` (stereo not shown) [1-(1,1-Dioxo-1λ6-thiomorpholine-4-carbonyl)-piperidine-3-carboxylic acid (5-tert-butyl-isoxazol-3-yl)-amide], 215 nM. With `O=C(NCCSCc1c(F)cccc1Cl)[C@@H]1CCCCN1C(=O)N1CCS(=O)(=O)CC1` [(S)-1-(1,1-Dioxo-1λ^6-thiomorpholine-4-carbonyl)-piperidine-2-carboxylic acid [2-(2-chloro-6-fluoro-benzylsulfanyl)-ethyl]-amide], the EC50 was determined as 130 nM.

As to `COCC(C)(C)c1cc(NC(=O)[C@@H]2CCCCN2C(=O)N2CCS(=O)(=O)CC2)no1` [(S)-1-(1,1-Dioxo-1λ^6-thiomorpholine-4-carbonyl)-piperidine-2-carboxylic acid [5-(2-methoxy-1,1-dimethyl-ethyl)-isoxazol-3-yl]-amide], the concentration for a half-maximal effect (EC50) is 162 nM.

For `O=C(Nc1nc(-c2ccccc2)ns1)[C@@H]1CCCCN1c1ncc(C(F)(F)F)cc1Cl` [(S)-3′-Chloro-5′-trifluoromethyl-3,4,5,6-tetrahydro-2H-1,2′-bipyridinyl-2-carboxylic acid (3-phenyl-1,2,4-thiadiazol-5-yl)-amide], the EC50 worked out at 11 nM.

Regarding `O=C(Nc1nc(-c2ccc(F)cc2)ns1)[C@@H]1CCCCN1C(=O)N1CCS(=O)(=O)CC1` [(S)-1-(1,1-Dioxo-1λ^6-thiomorpholine-4-carbonyl)-piperidine-2-carboxylic acid [3-(4-fluoro-phenyl)-[1,2,4]thiadiazol-5-yl]-amide], the EC50 worked out at 22 nM. The same measure, in the same setting: under `O=C(Nc1nc2cc(F)c(F)cc2s1)[C@@H]1CCCCN1C(=O)N1CCS(=O)(=O)CC1` [(S)-1-(1,1-Dioxo-1λ^6-thiomorpholine-4-carbonyl)-piperidine-2-carboxylic acid (5,6-difluoro-benzothiazol-2-yl)-amide] stands 448 nM; under `CC(C)(C)c1cc(NC(=O)[C@@H]2CCCCN2C(=O)CN2CCCC2)no1` [(S)-1-(2-Pyrrolidin-1-yl-acetyl)-piperidine-2-carboxylic acid (5-tert-butyl-isoxazol-3-yl)-amide], 431 nM. Same read-out and setting: as for `O=C(Nc1ccc(C(F)(F)F)c(F)c1)[C@@H]1CCCCN1CC1CCOCC1` [(S)-1-(Tetrahydro-pyran-4-ylmethyl)-piperidine-2-carboxylic acid (3-fluoro-4-trifluoromethyl-phenyl)-amide], the figure is 1.8 nM; as for `COc1ccc(-c2nsc(NC(=O)[C@@H]3CCCCN3C(=O)N3CCS(=O)(=O)CC3)n2)cc1` [(S)-1-(1,1-Dioxo-1λ^6-thiomorpholine-4-carbonyl)-piperidine-2-carboxylic acid [3-(4-methoxy-phenyl)-[1,2,4]thiadiazol-5-yl]-amide], 20 nM. Same read-out and setting: under `O=C(Nc1nc(-c2ccccc2)cs1)[C@@H]1CCCCN1CC1CCOCC1` [(S)-1-(Tetrahydro-pyran-4-ylmethyl)-piperidine-2-carboxylic acid (4-phenyl-thiazol-2-yl)-amide] stands 9.9 nM. Regarding `CC(C)(C)c1nnc(NC(=O)[C@@H]2CCCCN2C(=O)N2CCS(=O)(=O)CC2)s1` [(S)-1-(1,1-Dioxo-1λ^6-thiomorpholine-4-carbonyl)-piperidine-2-carboxylic acid (5-tert-butyl-1,3,4-thiadiazol-2-yl)-amide], the EC50 stood at 53 nM. Still for that read-out and setting: under `CC(C)(C)c1cc(NC(=O)[C@@H]2CCCC(=O)N2c2ccc(Cl)cc2)on1` [(S)-1-(4-Chloro-phenyl)-6-oxo-piperidine-2-carboxylic acid (3-tert-butyl-isoxazol-5-yl)-amide] stands 181 nM. Take `CC(C)(C)OC(=O)N1CCCC[C@H]1C(=O)Nc1cc(C(C)(C)C)on1` [(S)-2-(5-tert-Butyl-isoxazol-3-ylcarbamoyl)-piperidine-1-carboxylic acid tert-butyl ester]: the EC50 turned out to be 279 nM. Same read-out and setting: as for `CC(C)(C)OC(=O)N1CCCC[C@H]1C(=O)Nc1nnc(C(C)(C)C)s1` [(S)-2-(5-tert-Butyl-1,3,4-thiadiazol-2-ylcarbamoyl)-piperidine-1-carboxylic acid tert-butyl ester], the figure is 495 nM. On the same count and under the same terms, under `O=C(Nc1nc2c(F)cccc2s1)[C@@H]1CCCCN1C(=O)N1CCS(=O)(=O)CC1` [(S)-1-(1,1-Dioxo-1λ^6-thiomorpholine-4-carbonyl)-piperidine-2-carboxylic acid (4-fluoro-benzothiazol-2-yl)-amide] stands 59 nM; under `CCc1sc(NC(=O)[C@@H]2CCCCN2C(=O)OC(C)(C)C)nc1-c1ccccc1` [(S)-2-(5-Ethyl-4-phenyl-thiazol-2-ylcarbamoyl)-piperidine-1-carboxylic acid tert-butyl ester], 180 nM.
